Patent US12286439B2, “Inhibitors of ERK nuclear translocation” (Yeda Research and Development Co. Ltd., priority 2018, dated 2025)
Entries after “also recorded” stand apart in the source; their conditions may differ. Values belong to the molecule of their own block, whether it stands above or below them.

Experiments:
Assay type in all cases: cell-based
[1] = system: melanoma cells (A2185, A2352, A2024, A2058 and LOX-IMVI); assay: Dose-response analysis (IC50 assay), melanoma cells; details: calculated by interpolation in the dose response curves
Method: (§1) FIG. 15A presents dose response curves of compounds C17, D3, D11 and D14 on 8 cancer cells. Five melanoma cell lines (A2185, A2352, A2024, A2058 and LOX-IMVI), HeLa, HCT-116 and PC3 cells were grown in 1% FCS media containing either DMSO (0.1%), EPE peptide (10 μM), or Compounds C17, D3, D11, D14 at the indicated concentrations, for 72 hours. Viable cells were quantified by staining with methylene blue. Data presented as percentage of DMSO control ±SE of triplicates. […] IC50 values were calculated by interpolation in the curves in FIG. 15A. […] Bar graphs represent average viability respect to DMSO control ±SE of triplicates.
(§2) Cell Viability (IC50) Assay:
(§3) Cells were seeded at a density of 4000 cells per well into 96-well plates in complete medium. After 24 hours, medium was replaced by 1% FCS (fetal calf serum) containing appropriate treatments. Fresh medium containing the same agents was replaced every day. After 96 hours, cell viability was assessed using the CellTiter-Glo reagent (Promega; Madison, WI). IC50 values were determined using GraphPad Prism.

[2] = system: PC3 cells; assay: Dose-response analysis, PC3 cells; details: dose response, 72 hours
Method: as §1, §2, §3

[3] = system: A2058 cells; assay: Dose-response analysis, A2058 cells; details: dose response, 72 hours
Method: as §1, §2, §3

[4] = system: A2185 and A2352 cells; assay: Viability assay (methylene blue), two BRAF melanoma cells; details: for cytotoxicity at 1 µM / cell viability at lower concentration / viability at 10 µM / cell viability, dose response: 72 hours, 1% FCS; for cytotoxicity at 1 µM: both melanoma cell lines, read-out: reduction of viability; for cell viability at lower concentration: 3 μM; for viability at 10 µM: active below 40%, moderate below 80%, not active above 80%, read-out: cell viability (percentage of DMSO control); for cell viability, dose response: 0.1-10 μM
Method: FIGS. 10A, 10B and 10C present data from screening the 20 analogs of Compound Z2 (“C-compounds”) showing three particularly active anti-proliferative compounds. […] A2185 and A2352 cells were grown in 1% FCS containing DMSO (0.1%), EPE peptide, Compound Z56, Compound Z2 or C-compounds (10 μM), for 72 hours. Compounds were categorized according to activity: (1) active, below 40%; (2) moderate activity, below 80%; (3) not active, above 80%. […] A2185 and A2352 cells were grown in 1% FCS containing DMSO (0.1%), EPE peptide (10 μM), compounds Z56, Z2 or selected C-compounds (3 μM), for 72 hours. Empty squares/circles represent individual data points of proliferation. Full squares/circles indicate average proliferation of 2 independent experiments in triplicate±SE. Bold horizontal line defines arbitrary activity threshold of activity below 40%. FIG. 10C presents dose response curves of active C-compounds compounds. A2185 and A2352 were grown in 1% FCS media containing DMSO (0.1%), EPE peptide, Z56, Z2 (10 μM) or compounds C17, C22 and C23 (0.1-10 μM), for 72 hours. […] Cell viability was measured by staining with methylene blue. Data presented as percentage of DMSO control. Bar graphs represent average of 2 independent experiments done in triplicates ±SE.
FIG. 13 presents a graph showing the effect of analogs of Compound C17 (“D-compounds”) on cell viability at a concentration of 10 μM. A2185 and A2352 cells were grown in 1% FCS media containing DMSO (0.1%) EPE peptide (10 μM), Compounds Z56, Z2, C17 (10 μM) as controls, and D-Compounds (10 μM), for 72 hours. Viable cells were measured by staining with methylene blue. Bar graphs represent average of 2 independent experiments done in triplicates. Data presented as percentage of DMSO proliferation ±standard error.
FIG. 14 presents a graph showing the effect of analogs of Compound C17 (“D-compounds”) on cell viability at a concentration of 1 μM. A2185 and A2352 cells were grown in 1% FCS media containing DMSO (0.1%), EPE peptide (10 μM), Compounds Z56, Z2 and C17 (1 and 10 μM) as controls, and D-compounds (1 μM), for 72 hours. Viable cells were measured by staining with methylene blue. Bar graphs represent average of 2 independent experiments done in triplicates. Data presented as percentage of DMSO proliferation ±standard error.
Cells were seeded at low confluence into 24, 48 or 96-well plates in complete medium. After 24 hours, medium was replaced by 1% FCS (fetal calf serum) containing appropriate treatments. Fresh medium containing the same agents was replaced every day. After 72 or 96 hours of treatment, cells were fixed with 4% formaldehyde overnight at 23° C., washed once with 0.1 M borate buffer (pH 8.5) for 10 minutes, and stained with of 1% methylene blue in 0.1 M borate buffer (pH 8.5) for 30 minutes. Excess stain was washed out with distilled water. Color was extracted by adding 0.1 M HCl (3 hours, 23° C.), and absorbance measured at 595 nm in an ELISA reader. For time course experiments, attached cells were fixed and measured at 0, 24, 48, 72 and 96 hours. For dose-response experiments, cells were treated with indicated concentrations of reagent, fixed and stained after 72 hours as above.
The ability of the selected compounds to reduce cell viability of two BRAF melanoma cells (A2185 and A2352) was evaluated. Initially, all compounds were assayed at a relatively high concentration of 10 μM.

[5] = system: A2185, A2352, A2024, A2058, LOX-IMVI, HeLa, HCT-116 and PC3 cells; assay: Dose-response analysis (IC50 assay) in eight cancer cell lines; details: for potency in reducing cell viability relative to Compound D14 / potency in reducing cell viability relative to Compound C17: 72 hours; for potency in reducing cell viability relative to Compound D14: in seven of the eight cell lines; for potency in reducing cell viability relative to Compound C17: in six of the eight tested cell lines; for selectivity (pattern of effect across cell types compared with EPE peptide): eight cancer cell lines
Method: as §1
Cell Viability (IC50) Assay: […]

[6] = system: ERK1/2 nuclear translocation; assay: Determination of ERK1/2 localization by fluorescence microscopy after TPA stimulation; details: TPA 100 nM, 15 minutes; for inhibition of stimulated ERK1/2 nuclear translocation: 1 μM, 2 h, A2185 cells; for nuclear accumulation of ERK1/2 upon TPA stimulation: 10 μM, 2 hours, A2185 and A2352 cells
Method: Determination of Protein Localization by Fluorescence Microscopy:
Indicated cells were seeded on coverslips (coated with 0.001% w/v poly-L-lysine or not, depending on the cell line) at 50% confluency. After the indicated treatment, cells were fixed in 4% paraformaldehyde/PBS for 20 minutes on an ice surface, permeabilized with 0.1% Triton X-100/PBS for 5 minutes at 23° C., then blocked in 2% BSA/PBS for 30 minutes at 23° C. The fixed cells were sequentially incubated with appropriate antibodies (in 2% BSA/PBS, 1.5 hour), washed 3 times with PBS^−/−, and followed by incubation with either Cy-2-conjugated or rhodamine-conjugated secondary antibodies (1:200) and with DAPI ([…]; 1:100) in 2% BSA/PBS for 45 minutes. Slides were analyzed and photographed by a fluorescence microscope (Olympus BX51, ×40). Background correction, and contrast adjustment of raw data images were performed using Photoshop (Adobe, CA, USA).
The effect of Z56 was compared with that of the inhibitory effect of EPE peptide on nuclear translocation of ERK1/2.
The effects of the compounds on ERK1/2 nuclear translocation were evaluated in three cell lines (HeLa cells and two melanoma cell lines, A2185 and A2352), by treating the cells with each compound for two hours, and determining nuclear translocation using fluorescent anti-ERK antibodies, according to procedures described hereinabove.

IC50 [1]: 0.04 to 0.25 µM
SMILES: O=S1(=O)C=CC2ON=C(c3ccc(Cl)c(Cl)c3)C21 (stereo not shown) [Compound D11]
viability of PC3 cells [2]: did not | reducing the viability of A2058 cells [3]: strong effect | cytotoxicity at 1 µM [4]: ≤ 90% | potency in reducing cell viability relative to Compound D14 [5]: slightly more potency than Compound D14 | potency in reducing cell viability relative to Compound C17 [5]: significantly more potency than Compound C17 | selectivity (pattern of effect across cell types compared with EPE peptide) [5]: more selective than Compounds C17 and D14 | inhibition of stimulated ERK1/2 nuclear translocation [6]: convincing activity

SMILES: O=C(OC1CS(=O)(=O)CC1Br)c1ccccc1 (stereo not shown) [Compound C22]
cell viability at lower concentration [4]: at least as potent as Compound Z2 | viability at 10 µM [4]: < 40% | cell viability, dose response [4]: dose dependent manner | activity in SAR summary of FIGS. 10A-10C (cell viability) ([4]; comparison with Compound Z2 or named analog): far more active than Compound C6 | nuclear accumulation of ERK1/2 upon TPA stimulation [6]: inhibited

SMILES: O=S1(=O)C=CC2ON=C(c3c(Cl)cccc3Cl)C21 (stereo not shown) [Compound C23]
cell viability at lower concentration [4]: at least as potent as Compound Z2 | viability at 10 µM [4]: < 40% | cell viability, dose response [4]: dose dependent manner | nuclear accumulation of ERK1/2 upon TPA stimulation [6]: inhibited

IC50 [1]: 0.04 to 0.25 µM
SMILES: O=S1(=O)C=CC2ON=C(c3cc(Cl)cc(Cl)c3)C21 (stereo not shown) [Compound D3]
viability of PC3 cells [2]: did not | reducing the viability of A2058 cells [3]: strong effect | cytotoxicity at 1 µM [4]: ≤ 90% | potency in reducing cell viability relative to Compound D14 [5]: slightly more potency than Compound D14 | potency in reducing cell viability relative to Compound C17 [5]: significantly more potency than Compound C17 | selectivity (pattern of effect across cell types compared with EPE peptide) [5]: more selective than Compounds C17 and D14 | inhibition of stimulated ERK1/2 nuclear translocation [6]: convincing activity; also recorded: most potent of the three tested compounds
